Patent US6417212B1, “Modulators of peroxisome proliferator activated receptors” (Eli Lilly & Company, priority 1999, dated 2002)

Test system: Hu apoAI transgenic mice
Experiment: Evaluation of triglyceride and cholesterol levels in Hu apoAI transgenic mice
Format: in vivo
Conditions: Mus musculus, 168 h, 30 mg/kg daily oral gavage for 7 days; for change in vivo at 30 mg/kg: pooled sera, read-out: % HDLc Increase (serum, FPLC area under the curve, over vehicle); for inhibition in vivo at 30 mg/kg: serum 3 hours after dosing on day 7, read-out: % Triglyceride Decrease (serum, over mice receiving vehicle)
Description: After an acclimation period of 2 weeks, animals were individually identified by ear notches, weighed, and assigned to groups based on body weight. Beginning the following morning, mice were dosed daily by oral gavage for 7 days using a 20 gauge, 11⁄2 curved disposable feeding needle (Popper & Sons). […] Prior to termination on day 7, mice were weighed and dosed. Three hours after dosing, animals were anesthetized by inhalation of isoflurane (2-4%; Abbott Laboratories, Chicago, Ill.) and blood obtained via cardiac puncture (0.7-1.0 ml). Whole blood was transferred to serum separator tubes (Vacutainer SST), chilled on ice, and permitted to clot. Serum was obtained after centrifugation at 4° C. and frozen until analysis for triglycerides, total cholesterol, compound levels, and serum lipoprotein profile by fast protein liquid chromatography (FPLC) coupled to an inline detection system. After sacrifice by cervical dislocation, the liver, heart and epididymal fat pads were excised and weighed. […] The percentage decrease in triglyceride serum levels in mice receiving a compound of the invention over mice receiving vehicle are reported in Table 2. […] The absorbance of the dye produced is linearly related to the analyte in the sample. The assays were further modified in our laboratory for use in a 96 well format. […] An additional aliquot of sample, pipetted to a third well and diluted in 200 μl water, provided a blank for each specimen. […] All samples from an experiment were assayed at the same time to minimize inter-assay variability. Serum lipoproteins were separated and cholesterol quantitated with an in-line detection system. […] The change in voltage corresponding to change in cholesterol concentration was plotted vs time and the area under the curve corresponding to the elution of VLDL, LDL and HDL was calculated using Perkin Elmer Turbochrome software.

SMILES | change in vivo at 30 mg/kg | inhibition in vivo at 30 mg/kg
Cc1oc(-c2ccc(-c3c(F)cccc3F)cc2)nc1CCOc1ccc(OC(C)(C)C(=O)O)cc1 [Example 14, 2-(4-{2-[2-(2′,6′-Difluorobiphenyl-4-yl)-5-methyloxazol-4-yl]-ethoxy}-phenoxy)-2-methylpropionic acid] | 66% | 67.5%
Cc1oc(-c2ccc(-c3ccccc3)cc2)nc1CCOc1cccc(OC(C)(C)C(=O)O)c1 [Example 21, 2-{3-[2-(2-Biphenyl-4-yl-5-methyloxazol-4-yl)ethoxy]phenoxy}-2-methylpropionic acid] | 204% | 60.5%
Cc1sc(-c2cccc(-c3ccccc3)c2)nc1CCOc1ccc(OC(C)(C)C(=O)O)cc1 [Example 46, 2-{4-[2-(2-Biphenyl-3-yl-5-methyl-thiazol-4-yl)-ethoxy]-phenoxy}-2-methyl-propionic acid] | 26% | 16.4%
